The results in this text go back to US20230089247A1, “NOVEL COMPOUNDS SUITABLE FOR THE TREATMENT OF DYSLIPIDEMIA” (ZYDUS LIFESCIENCES LIMITED, priority 2019, published 2023).

One experiment concerns the target PCSK9 (Homo sapiens, UniProt Q8NBP7). Nature of the experiment: BODIPY-LDL uptake assay in HepG2 cells. Particulars: 5 μg/ml PCSK9, BODIPY-LDL. The class given is cell-based. The gist of the method:
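Compounds pre-incubated 60 min with 5 μg/ml PCSK9 (0.2% DMSO), then added to HepG2 cells for 16 h; 1 μg/ml BODIPY-LDL added in serum-free medium for 5 h. Fluorescence (Ex 485/Em 520 nm) normalized to protein; PCSK9-only wells = 0%, no-PCSK9 wells = 100% uptake, giving percent increase in LDL uptake.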

For another experiment, the system named is High Fat Diet C57 Mice. Briefly: LDL-C lowering activity in high fat diet C57 mice. The class given is in vivo. Particulars: Mus musculus, po, 168 h; C57 mice on high fat diet; 30 mg/Kg orally once a day, 7 days treatment, blood on day 7; read-out: % Change Vs Vehicle Control in LDLc. The protocol: LDL-C Lowering Activity—in High Fat Diet C57 Mice
The in-vivo LDL-c lowering for test compound was tested in C57 mice which were kept on high fat diet for 4 weeks and the blood was collected by retro-orbital sinus puncture method under light ether anesthesia on day 0 (pretreatment). Animal are grouped based on LDL-c levels, after that 7 days treatment with vehicle or test compound orally at a dose of 30 mpk dose once a day was given. On completion of treatment on day 7 of the treatment the blood was collected for LDL-c and TC levels measurement.

Chain of PCSK9 (Q8NBP7 153-692): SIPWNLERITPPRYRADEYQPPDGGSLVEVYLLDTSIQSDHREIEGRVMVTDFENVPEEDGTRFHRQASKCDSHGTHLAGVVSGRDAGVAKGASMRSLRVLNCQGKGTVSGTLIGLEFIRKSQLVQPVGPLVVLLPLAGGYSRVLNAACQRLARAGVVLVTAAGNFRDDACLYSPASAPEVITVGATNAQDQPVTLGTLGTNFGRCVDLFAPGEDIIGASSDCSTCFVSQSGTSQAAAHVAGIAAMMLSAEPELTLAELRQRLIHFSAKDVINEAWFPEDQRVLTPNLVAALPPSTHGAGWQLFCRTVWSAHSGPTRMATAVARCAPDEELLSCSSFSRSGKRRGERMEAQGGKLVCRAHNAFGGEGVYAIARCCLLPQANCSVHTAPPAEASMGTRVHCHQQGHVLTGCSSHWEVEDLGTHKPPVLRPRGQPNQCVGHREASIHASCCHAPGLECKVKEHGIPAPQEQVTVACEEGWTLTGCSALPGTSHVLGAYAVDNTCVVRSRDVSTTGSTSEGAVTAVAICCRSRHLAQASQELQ

For the molecule `O=C(c1ccc(C2(O)COC2)cc1)N1CC2=C(C1)CN(c1ccc(C(F)(F)F)cc1)C2` [Example 95, (4-(3-hydroxyoxetan-3-yl)phenyl)(5-(4-(trifluoromethyl)phenyl)-3,4,5,6-tetrahydropyrrolo[3,4-c]pyrrol-2(1H)-yl)methanone], the “% increase in LDL Uptake” value is given as 19% on PCSK9 (1 μM test compound), 127% at PCSK9 (10 μM test compound) and 226% at PCSK9 (30 μM test compound). The change in vivo at 30 mg/kg in the experiment with High Fat Diet C57 Mice is -16 ± 9%.

`O=C(c1ccc(C2(O)COC2)cc1)N1CC2CN(c3ccc(C(F)(F)F)nc3)CC2C1` (stereo not shown) [Example 215, (4-(3-hydroxyoxetan-3-yl)phenyl)(5-(6-(trifluoromethyl)pyridin-3-yl)hexahydropyrrolo[3,4-c]pyrrol-2(1H)-yl)methanone]: the results for the “% increase in LDL Uptake” value on PCSK9 (1 μM test compound), at PCSK9 (10 μM test compound) and at PCSK9 (30 μM test compound) were 0%, 90% and 140%, respectively. Besides, the change in vivo at 30 mg/kg in the experiment with High Fat Diet C57 Mice is -29 ± 5%.

For `O=C(c1ccc(C2(O)COC2)cc1)N1CCC(c2ccc(C(F)(F)F)cc2)CC1` [Example 1, (4-(3-hydroxyoxetan-3-yl)phenyl)(4-(4-(trifluoromethyl)phenyl)piperidin-1-yl)methanone], the “% increase in LDL Uptake” value came out at 25% on PCSK9 (1 μM test compound), 135% on PCSK9 (10 μM test compound) and 130% at PCSK9 (30 μM test compound). In addition, the change in vivo at 30 mg/kg in the experiment on High Fat Diet C57 Mice is -52 ± 4%.

For `COC1(c2cccc(C(=O)N3CC4CN(c5ccc(C(F)(F)F)cc5)CC4C3)c2)COC1` (stereo not shown) [Example 56, (3-(3-methoxyoxetan-3-yl)phenyl)(5-(4-(trifluoromethyl)phenyl)hexahydropyrrolo[3,4-c]pyrrol-2(1H)-yl)methanone], the “% increase in LDL Uptake” value at PCSK9 (1 μM test compound) amounted to 55%; on PCSK9 (10 μM test compound) it was 344%; at PCSK9 (30 μM test compound), 257%. Also, the change in vivo at 30 mg/kg in the experiment on High Fat Diet C57 Mice was -5 ± 8%.

As to `O=C(c1ccc(C2(O)COC2)cc1)N1CCCC(c2ccc(C(F)(F)F)cc2)C1` (stereo not shown) [Example 34, (4-(3-hydroxyoxetan-3-yl)phenyl)(3-(4-(trifluoromethyl)phenyl)piperidin-1-yl)methanone], the “% increase in LDL Uptake” value on PCSK9 (1 μM test compound) is on record as 27%; on PCSK9 (10 μM test compound), 86%; on PCSK9 (30 μM test compound) it was 252%. For the same molecule, the change in vivo at 30 mg/kg in the experiment with High Fat Diet C57 Mice was -31 ± 8%.

Take `COC1(c2ccc(C(=O)N3CCCC(c4ccc(C(F)(F)F)cc4)C3)cc2)COC1` (stereo not shown) [Example 39, (4-(3-methoxyoxetan-3-yl)phenyl)(3-(4-(trifluoromethyl)phenyl)piperidin-1-yl)methanone]: the “% increase in LDL Uptake” value on PCSK9 (1 μM test compound) was 26%; on PCSK9 (10 μM test compound), 149%; at PCSK9 (30 μM test compound), 147%. Moreover, the change in vivo at 30 mg/kg in the experiment on High Fat Diet C57 Mice is -29 ± 5%.

Consider `O=C(c1cccc(C2(O)COC2)c1)N1CCC(c2ccc(C(F)F)cc2)CC1` [Example 66, (4-(4-(difluoromethyl)phenyl)piperidin-1-yl)(3-(3-hydroxyoxetan-3-yl)phenyl)methanone], for which the “% increase in LDL Uptake” value at PCSK9 (1 μM test compound) is given as 0%; on PCSK9 (10 μM test compound) it was 24%; at PCSK9 (30 μM test compound) it was 159%. Moreover, in the experiment on High Fat Diet C57 Mice, the change in vivo at 30 mg/kg is -24 ± 7.1%.

Regarding `[2H]C([2H])([2H])OC1(c2ccc(C(=O)N3CC4CN(c5ccc(C(F)(F)F)cc5)CC4C3)cc2)COC1` (stereo not shown) [Example 134, (4-(3-(methoxy-d3)oxetan-3-yl)phenyl)(5-(4-(trifluoromethyl)phenyl)hexahydropyrrolo[3,4-c]pyrrol-2(1H)-yl)methanone], the “% increase in LDL Uptake” value was 3% on PCSK9 (1 μM test compound), 28% on PCSK9 (10 μM test compound) and 43% at PCSK9 (30 μM test compound). The change in vivo at 30 mg/kg with High Fat Diet C57 Mice was -38 ± 7%.

Consider `[2H]C([2H])([2H])OC1(c2ccc(C(=O)N3CCC(c4ccc(C(F)(F)F)cc4)CC3)cc2)COC1` [Example 76, (4-(3-(methoxy-d3)oxetan-3-yl)phenyl)(4-(4-(trifluoromethyl)phenyl)piperidin-1-yl)methanone], for which the “% increase in LDL Uptake” value at PCSK9 (1 μM test compound) amounted to 10%; at PCSK9 (10 μM test compound) it was 98%; on PCSK9 (30 μM test compound), 108%. In addition, the change in vivo at 30 mg/kg in the experiment on High Fat Diet C57 Mice is -28 ± 7%.

With `COC1(c2ccc(C(=O)N3Cc4cn(-c5ccc(C(F)(F)F)cc5)nc4C3)cc2)COC1` [Example 90, (4-(3-methoxyoxetan-3-yl)phenyl)(2-(4-(trifluoromethyl)phenyl)-2,6-dihydropyrrolo[3,4-c]pyrazol-5(4H)-yl)methanone], the “% increase in LDL Uptake” value at PCSK9 (1 μM test compound) is on record as 3%; at PCSK9 (10 μM test compound) it was 39%; on PCSK9 (30 μM test compound) it was 74%. In the experiment with High Fat Diet C57 Mice, the change in vivo at 30 mg/kg is -5.5 ± 4.5%.
